In patent US20090142429A1, “SILICIBACTER SP. STRAIN USEFUL FOR GENETIC TRANSFORMATION OF MARINE ALGAE AND PRODUCTION OF ANTIBIOTIC AGENTS” (UNIVERSITY OF MARYLAND BIOTECHNOLOGY INSTITUTE, priority 2005, published 2009):

Key:
[1] = tested on: Silicibacter sp. strain TM1040; experiment: Chemotaxis plate screening assay (change in motile colony morphology); format: cell-based; conditions: for Change in morphology with carbon source Alanine / Change in morphology with carbon source Glucose / Change in morphology with carbon source Glycerol / Change in morphology with carbon source Succinate: BM motility agar; for Change in morphology with carbon source Alanine: alanine as single carbon source; for Change in morphology with carbon source Glucose: glucose as single carbon source; for Change in morphology with carbon source Glycerol: glycerol as single carbon source; for Change in morphology with carbon source Succinate: succinate as single carbon source; as to Change in morphology with carbon source Alanine: key: −: minus indicates no change compared to distilled water or no attractant controls; +: either one or two pluses indicates moderate to strong alteration in motile colony phenotype (respectively); ++: either one or two pluses indicates moderate to strong alteration in motile colony phenotype (respectively); as to Change in morphology with carbon source Glucose: key: −: minus indicates no change compared to distilled water or no attractant controls; +: either one or two pluses indicates moderate to strong alteration in motile colony phenotype (respectively); ++: either one or two pluses indicates moderate to strong alteration in motile colony phenotype (respectively); as to Change in morphology with carbon source Glycerol: key: −: minus indicates no change compared to distilled water or no attractant controls; +: either one or two pluses indicates moderate to strong alteration in motile colony phenotype (respectively); ++: either one or two pluses indicates moderate to strong alteration in motile colony phenotype (respectively); as to Response: change in motile colony morphology of TM1040 in response to attractants, compared to the control: key: −: minus indicates no change compared to distilled water or no attractant controls; +: either one or two pluses indicates moderate to strong alteration in motile colony phenotype (respectively); ++: either one or two pluses indicates moderate to strong alteration in motile colony phenotype (respectively)
Protocol: Following 36 h of incubation, a putative attractant was placed approximately 5 cm from the site of inoculation (or 2.5 cm in front of the periphery of motile cells). Possible chemoattractant compounds were administered as either a sterile solid or concentrated stock solutions. The cells were further incubated for 16 h to allow for additional outward movement, at which time measurement of diameter, shape, and chemotaxis rings internal to the motile colony were made.
[…] Bacteria inoculated into the center of the agar consume nutrients and create a concentration gradient that increases outward from the point of inoculation. The bacteria sense the increasing gradient and swim outwards, seeking higher concentrations of nutrients, which is manifested as a symmetrical “motile” colony. If an attractant is placed at a short distance in front of the advancing motile colony, it forms a second gradient moving towards the oncoming cells that will affect the symmetry of the colony by reducing the net outward swimming of the bacteria.

[2] = tested on: Silicibacter sp. strain TM1040; experiment: Quantitative capillary chemotaxis assay; format: cell-based; conditions: pure compounds, FIG. 12; capillaries filled with 2 μM or 200 μM attractant
Description: The cells were pelleted by centrifugation at 4,000×g in a tabletop centrifuge (Centra-CL2; International Equipment Company), the supernatant was discarded, and the pellet was resuspended in chemotaxis buffer (CB) (15 g of ASW, 6 g of Tris-HCl per liter [pH 7.6]) to the same OD. Five hundred microliters of washed cells was placed in one of the wells of the Palleroni chamber, followed by a 1-μl capillary (Microcaps; Drummond) filled with a putative attractant diluted in CB. This process was repeated for each of the four wells in the chamber. A capillary filled with CB only was included in each experiment as a negative control. Depending on the experiment, capillaries remained in the chambers for 0.5 to 2 h, after which time they were removed, and the contents of each capillary were serially diluted in CB. Final dilutions were then spread on HIASW agar plates and incubated for 16 h at 30° C. The concentration of TM1040 in each capillary was derived by counting the CFU on each plate and multiplying by the appropriate dilution factor. […]

[3] = glucose background (BM glucose)

Row | SMILES | Response: change in motile colony morphology of TM1040 in response to attractants, compared to the control ([1]; BM glycerol motility agar) | chemotactic response of TM1040 in plate assay ([1]; BM glycerol motility agar) | also measured
1 | C[C@H](N)C(=O)O [Alanine] | ++ |  | Change in morphology with carbon source Alanine [1]: −; Change in morphology with carbon source Glucose [1]: −; Change in morphology with carbon source Glycerol [1]: ++; Change in morphology with carbon source Succinate [1]: +
2 | O=C(O)CCC(=O)C(=O)O [Alpha-ketoglutarate] | − | no response | response factor (mean) [2]: none were found to be significant chemoattractants; Change in morphology with carbon source Alanine [1]: −; Change in morphology with carbon source Glucose [1]: −; Change in morphology with carbon source Glycerol [1]: −; Change in morphology with carbon source Succinate [1]: +
3 | O=C(O)CC(O)(CC(=O)O)C(=O)O [Citrate] | ++ | strong positive response | response factor (mean) [2]: none were found to be significant chemoattractants
4 | C[S+](C)[O-] [DMSO, dimethyl sulfoxide] | − |  | Change in morphology with carbon source Alanine [1]: −; Change in morphology with carbon source Glucose [1]: −; Change in morphology with carbon source Glycerol [1]: −; Change in morphology with carbon source Succinate [1]: −
5 | O=C[C@H](O)[C@@H](O)[C@@H](O)[C@H](O)CO [Galactose] | ++ | responded positively | Change in morphology with carbon source Alanine [1]: −; Change in morphology with carbon source Glucose [1]: −; Change in morphology with carbon source Glycerol [1]: ++; Change in morphology with carbon source Succinate [1]: +
6 | NCC(=O)O [Glycine] | + |  | response factor (mean) [2]: ca. 3.5
7 | OC[C@H]1O[C@@H](O[C@H]2[C@H](O)[C@@H](O)C(O)O[C@@H]2CO)[C@H](O)[C@@H](O)[C@H]1O (some centres unmarked) [Lactose] | − |  | Change in morphology with carbon source Alanine [1]: −; Change in morphology with carbon source Glucose [1]: −; Change in morphology with carbon source Glycerol [1]: −; Change in morphology with carbon source Succinate [1]: −
8 | O=C(O)CCS [MPA, 3-mercaptopropionate] | + | only weakly | 
9 | CC(=O)N[C@H]1C(O)O[C@H](CO)[C@@H](O)[C@@H]1O (some centres unmarked) [N-acetylglucosamine] | ++ | responded positively | Change in morphology with carbon source Alanine [1]: +; Change in morphology with carbon source Glucose [1]: −; Change in morphology with carbon source Glycerol [1]: ++; Change in morphology with carbon source Succinate [1]: +
10 | O=C(O)CCC(=O)O [Succinate] | + | mild response | response factor (mean) [2]: none were found to be significant chemoattractants; Change in morphology with carbon source Alanine [1]: ++; Change in morphology with carbon source Glucose [1]: +; Change in morphology with carbon source Glycerol [1]: +; Change in morphology with carbon source Succinate [1]: −; chemotactic response of TM1040 in plate assay [1, 3]: moderate response
11 | C=CC(=O)O [acrylate] | ++ | responded strongly | Change in morphology with carbon source Alanine [1]: +; Change in morphology with carbon source Glucose [1]: +; Change in morphology with carbon source Glycerol [1]: ++; Change in morphology with carbon source Succinate [1]: ++; chemotactic response of TM1040 in plate assay [1, 3]: moderate response
12 | O=C[C@@H](O)[C@H](O)[C@H](O)CO [arabinose] | − | no detectable change in the appearance of the motile colony | 
13 | N=C(N)NCCC[C@H](N)C(=O)O [arginine] | ++ |  | 
14 | NC(=O)C[C@H](N)C(=O)O [asparagine] | ++ |  | 
15 | N[C@@H](CC(=O)O)C(=O)O [aspartic acid] | ++ |  | 
16 | N[C@@H](CS)C(=O)O [cysteine] | + |  | 
17 | O=C(CO)[C@@H](O)[C@H](O)[C@H](O)CO [fructose] | − | no detectable change in the appearance of the motile colony | 

Row | SMILES | Response: change in motile colony morphology of TM1040 in response to attractants, compared to the control ([1]; BM glycerol motility agar) | chemotactic response of TM1040 in plate assay ([1]; BM glycerol motility agar) | also measured
18 | C[C@H](O)[C@@H](O)[C@@H](O)[C@H](O)C=O [fucose] | − |  | 
19 | O=C(O)/C=C/C(=O)O [fumurate] | ++ | strong positive response | 
20 | N[C@@H](CCC(=O)O)C(=O)O [glutamic acid] | ++ |  | Change in morphology with carbon source Alanine [1]: −; Change in morphology with carbon source Glucose [1]: −; Change in morphology with carbon source Glycerol [1]: ++; Change in morphology with carbon source Succinate [1]: +
21 | OCC(O)CO [glycerol] | + |  | 
22 | N[C@@H](Cc1c[nH]cn1)C(=O)O [histidine] | + |  | 
23 | CC[C@H](C)[C@H](N)C(=O)O [isoleucine] | + |  | 
24 | CC(C)C[C@H](N)C(=O)O [leucine] | + |  | 
25 | OC[C@H]1O[C@H](O[C@H]2[C@H](O)[C@@H](O)[C@H](O)O[C@@H]2CO)[C@H](O)[C@@H](O)[C@@H]1O [maltose] | + | responded positively | Change in morphology with carbon source Alanine [1]: ++; Change in morphology with carbon source Glucose [1]: −; Change in morphology with carbon source Glycerol [1]: +; Change in morphology with carbon source Succinate [1]: ++
26 | N[C@@H](Cc1ccccc1)C(=O)O [phenylalanine] | ++ |  | 
27 | O=C(O)[C@@H]1CCCN1 [proline] | ++ |  | 
28 | O=C[C@H](O)[C@H](O)[C@H](O)CO [ribose] | − |  | 
29 | N[C@@H](CO)C(=O)O [serine] | + |  | 
30 | OC[C@H]1O[C@@](CO)(O[C@H]2O[C@H](CO)[C@@H](O)[C@H](O)[C@H]2O)[C@@H](O)[C@@H]1O [sucrose] | ++ | responded positively | 
31 | C[C@@H](O)[C@H](N)C(=O)O [threonine] | ++ |  | 
32 | N[C@@H](Cc1c[nH]c2ccccc12)C(=O)O [tryptophan] | + |  | 
33 | N[C@@H](Cc1ccc(O)cc1)C(=O)O [tyrosine] | + |  | 
34 | O=C[C@H](O)[C@@H](O)[C@H](O)CO [xylose] | − |  | 
